Laboratory results: ChEMBL document CHEMBL3822364, “Synthesis, characterization and antimicrobial activity of novel Schiff base tethered boronate esters of 1,2-O-isopropylidene-α-d-xylofuranose” (2016)
≈ marks a conversion by molar mass, not a printed value. Calls of active or inactive are those of the source. The calls are words filed in the database; no cut-off is given here.

Assays:
[1] = tested on: Salmonella typhi; assay: Antibacterial activity against Salmonella typhi assessed as zone of inhibition at 100 ug/well measured after 24 hrs by agar well diffusion method; assay type: functional, Salmonella enterica subsp. enterica serovar Typhi; details: Salmonella enterica, read-out: DIZ
[2] = tested on: Aspergillus fumigatus; assay: Antifungal activity against Aspergillus fumigatus MTCC 343 assessed as zone of inhibition at 100 ug/well measured after 48 hrs by agar well diffusion method; assay type: functional; details: MTCC 343, 48 h, read-out: DIZ
[3] = tested on: Streptococcus mutans; assay: Antibacterial activity against Streptococcus mutans MTCC 497 assessed as zone of inhibition at 100 ug/well measured after 24 hrs by agar well diffusion method; assay type: functional; details: MTCC 497, 24 h, read-out: DIZ
[4] = tested on: Staphylococcus aureus; assay: Antibacterial activity against Staphylococcus aureus MTCC 3160 assessed as zone of inhibition at 100 ug/well measured after 24 hrs by agar well diffusion method; assay type: functional; details: MTCC 3160, 24 h, read-out: DIZ
[5] = tested on: Salmonella paratyphi; assay: Antibacterial activity against Salmonella paratyphi measured after 24 hrs by NCCL protocol based broth dilution method; assay type: functional, Salmonella enterica subsp. enterica serovar Paratyphi A
[6] = tested on: Micrococcus luteus; assay: Antibacterial activity against Micrococcus luteus MTCC 106 measured after 24 hrs by NCCL protocol based broth dilution method; assay type: functional
[7] = tested on: Staphylococcus aureus; assay: Antibacterial activity against Staphylococcus aureus MTCC 3160 measured after 24 hrs by NCCL protocol based broth dilution method; assay type: functional
[8] = tested on: Klebsiella pneumoniae; assay: Antibacterial activity against Klebsiella pneumoniae MTCC 3384 assessed as zone of inhibition at 100 ug/well measured after 24 hrs by agar well diffusion method; assay type: functional; details: MTCC 3384, 24 h, read-out: DIZ
[9] = tested on: Salmonella paratyphi; assay: Antibacterial activity against Salmonella paratyphi assessed as zone of inhibition at 100 ug/well measured after 24 hrs by agar well diffusion method; assay type: functional, Salmonella enterica subsp. enterica serovar Paratyphi A; details: Salmonella enterica, read-out: DIZ
[10] = tested on: Streptococcus mutans; assay: Antibacterial activity against Streptococcus mutans MTCC 497 measured after 24 hrs by NCCL protocol based broth dilution method; assay type: functional
[11] = tested on: Salmonella typhi; assay: Antibacterial activity against Salmonella typhi measured after 24 hrs by NCCL protocol based broth dilution method; assay type: functional, Salmonella enterica subsp. enterica serovar Typhi
[12] = tested on: Candida albicans; assay: Antifungal activity against Candida albicans MTCC 3017 assessed as zone of inhibition at 100 ug/well measured after 48 hrs by agar well diffusion method; assay type: functional; details: MTCC 3017, 48 h, read-out: DIZ
[13] = tested on: Aspergillus fumigatus; assay: Antifungal activity against Aspergillus fumigatus MTCC 343 measured after 48 hrs by NCCL protocol based broth dilution method; assay type: functional
[14] = tested on: Micrococcus luteus; assay: Antibacterial activity against Micrococcus luteus MTCC 106 assessed as zone of inhibition at 100 ug/well measured after 24 hrs by agar well diffusion method; assay type: functional; details: MTCC 106, 24 h, read-out: DIZ
[15] = tested on: Candida albicans; assay: Antifungal activity against Candida albicans MTCC 3017 measured after 48 hrs by NCCL protocol based broth dilution method; assay type: functional
[16] = tested on: Klebsiella pneumoniae; assay: Antibacterial activity against Klebsiella pneumoniae MTCC 3384 measured after 24 hrs by NCCL protocol based broth dilution method; assay type: functional

Row | SMILES | zone of inhibition at 100 µg/disc [1] | zone of inhibition at 100 µg/disc [2] | zone of inhibition at 100 µg/disc [3] | zone of inhibition at 100 µg/disc [4] | MIC ([5]; Salmonella enterica) | MIC ([6]; MTCC 106, 24 h) | MIC ([7]; MTCC 3160, 24 h) | zone of inhibition at 100 µg/disc [8] | zone of inhibition at 100 µg/disc [9] | MIC ([10]; MTCC 497, 24 h) | MIC ([11]; Salmonella enterica) | zone of inhibition at 100 µg/disc [12] | MIC ([13]; MTCC 343, 48 h) | zone of inhibition at 100 µg/disc [14] | MIC ([15]; MTCC 3017, 48 h) | MIC ([16]; MTCC 3384, 24 h) | further results
1 | CC1(C)O[C@H]2O[C@@H]3COB(c4ccccc4C=O)O[C@@H]3[C@H]2O1 | 26 mm | 25 mm | 20 mm | 20 mm | 31.2 µg/mL (≈ 103 µM) | 62.5 µg/mL (≈ 206 µM) | 62.5 µg/mL (≈ 206 µM) | 27 mm | 21 mm | 62.5 µg/mL (≈ 206 µM) | 31.2 µg/mL (≈ 103 µM) | 26 mm | 31.2 µg/mL (≈ 103 µM) | 18 mm | 31.2 µg/mL (≈ 103 µM) | 15.6 µg/mL (≈ 51.4 µM) | 
2 | CC1(C)O[C@H]2O[C@@H]3COB(c4ccc(/C=N/c5ccccc5)cc4)O[C@@H]3[C@H]2O1 | 20 mm | 0 mm | 21 mm | 16 mm | 500 µg/mL (≈ 1320 µM) | 250 µg/mL (≈ 659 µM) | 125 µg/mL (≈ 330 µM) | 21 mm | 0 mm | 62.5 µg/mL (≈ 165 µM) | 62.5 µg/mL (≈ 165 µM) | 11 mm | 500 µg/mL (≈ 1320 µM) | 14 mm | 125 µg/mL (≈ 330 µM) | 62.5 µg/mL (≈ 165 µM) | 
3 | CCOc1cccc(/C=N/c2cccc(B3OC[C@H]4O[C@@H]5OC(C)(C)O[C@@H]5[C@H]4O3)c2)c1O | 24 mm | 21 mm | 16 mm | 0 mm | 250 µg/mL (≈ 569 µM) | 125 µg/mL (≈ 285 µM) | 250 µg/mL (≈ 569 µM) | 12 mm | 14 mm | 125 µg/mL (≈ 285 µM) | 31.2 µg/mL (≈ 71.1 µM) | 18 mm | 62.5 µg/mL (≈ 142 µM) | 15 mm | 62.5 µg/mL (≈ 142 µM) | 125 µg/mL (≈ 285 µM) | 
4 | CC1(C)O[C@H]2O[C@@H]3COB(c4cccc(N)c4)O[C@@H]3[C@H]2O1 | 11 mm | 0 mm | 17 mm | 12 mm | 500 µg/mL (≈ 1720 µM) | 250 µg/mL (≈ 859 µM) | 500 µg/mL (≈ 1720 µM) | 12 mm | 13 mm | 125 µg/mL (≈ 429 µM) | 500 µg/mL (≈ 1720 µM) | 13 mm | 500 µg/mL (≈ 1720 µM) | 13 mm | 500 µg/mL (≈ 1720 µM) | 500 µg/mL (≈ 1720 µM) | 
5 | CC1(C)O[C@H]2O[C@@H]3COB(c4cccc(/C=N/c5ccc(F)cc5)c4)O[C@@H]3[C@H]2O1 | 24 mm | 0 mm | 18 mm | 20 mm | 31.2 µg/mL (≈ 78.7 µM) | 125 µg/mL (≈ 315 µM) | 31.2 µg/mL (≈ 78.7 µM) | 16 mm | 21 mm | 62.5 µg/mL (≈ 157 µM) | 31.2 µg/mL (≈ 78.7 µM) | 19 mm | 250 µg/mL (≈ 629 µM) | 11 mm | 62.5 µg/mL (≈ 157 µM) | 62.5 µg/mL (≈ 157 µM) | 
6 | CC1(C)O[C@H]2O[C@@H]3COC(c4cccc(C=O)c4)O[C@@H]3[C@H]2O1 (stereo partly drawn) | 0 mm | 0 mm | 0 mm | 0 mm |  |  |  | 0 mm | 0 mm |  |  | 0 mm |  | 0 mm |  |  | MIC ([5]; Salmonella enterica subsp. enterica serovar Paratyphi A): inactive; MIC [6]: inactive; MIC [7]: inactive; MIC [10]: inactive; MIC ([11]; Salmonella enterica subsp. enterica serovar Typhi): inactive; MIC [13]: inactive; MIC [15]: inactive; MIC [16]: inactive
7 | COc1ccc(/C=N/c2cccc(B3OC[C@H]4O[C@@H]5OC(C)(C)O[C@@H]5[C@H]4O3)c2)c(O)c1 | 21 mm | 0 mm | 22 mm | 15 mm | 250 µg/mL (≈ 588 µM) | 62.5 µg/mL (≈ 147 µM) | 125 µg/mL (≈ 294 µM) | 19 mm | 0 mm | 62.5 µg/mL (≈ 147 µM) | 62.5 µg/mL (≈ 147 µM) | 13 mm | 250 µg/mL (≈ 588 µM) | 21 mm | 250 µg/mL (≈ 588 µM) | 62.5 µg/mL (≈ 147 µM) | 
8 | CN[C@@H]1[C@H](O[C@H]2[C@H](O[C@H]3[C@H](O)[C@@H](O)[C@H](N=C(N)N)[C@@H](O)[C@@H]3N=C(N)N)O[C@@H](C)[C@]2(O)C=O)O[C@@H](CO)[C@H](O)[C@H]1O.CN[C@@H]1[C@H](O[C@H]2[C@H](O[C@H]3[C@H](O)[C@@H](O)[C@H](N=C(N)N)[C@@H](O)[C@@H]3N=C(N)N)O[C@@H](C)[C@]2(O)C=O)O[C@@H](CO)[C@H](O)[C@H]1O.O=S(=O)(O)O.O=S(=O)(O)O.O=S(=O)(O)O [STREPTOMYCIN SULFATE] | 25 mm |  | 26 mm | 26 mm | 15.6 µg/mL | 31.2 µg/mL | 15.6 µg/mL | 25 mm | 23 mm | 31.2 µg/mL | 31.2 µg/mL |  |  | 20 mm |  | 31.2 µg/mL | 
9 | OC(Cn1cncn1)(Cn1cncn1)c1ccc(F)cc1F [FLUCONAZOLE] |  |  |  |  |  |  |  |  |  |  |  | 18 mm |  |  | 62.5 µg/mL (≈ 204 µM) |  | 
10 | C[C@@H]1C[C@@H]([C@H](O)CC2CC(=O)NC(=O)C2)C(=O)[C@@H](C)C1 [CYCLOHEXIMIDE] |  | 25 mm |  |  |  |  |  |  |  |  |  |  | 125 µg/mL (≈ 444 µM) |  |  |  | 
